Data taken from article PMC11039641, “Structural and biochemical analysis of family 92 carbohydrate-binding modules uncovers multivalent binding to β-glucans” (Nature Communications, 2024).

Key:
CpCBM92A = target: T1, CpCBM92A (Chitinophaga pinensis, UniProt A0A979GQH9); assay: isothermal titration calorimetry; details: 50 mM sodium phosphate pH 6.5; three equivalent binding sites (N fixed to 3)
T1 construct: gene Cpin_2580; single CBM92 domain (three WExF motifs incl. W481, W523, W565), borders only in supplement; pET21a, C-terminal His6, E. coli BL21 (DE3)
T1 sequence (A0A979GQH9 entry or part of it): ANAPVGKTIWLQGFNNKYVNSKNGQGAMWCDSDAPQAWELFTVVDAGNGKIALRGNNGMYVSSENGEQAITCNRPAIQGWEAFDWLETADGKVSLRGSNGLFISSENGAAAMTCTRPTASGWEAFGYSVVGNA
Description: isothermal titration calorimetry on CpCBM92A

CpCBM92B = target: T2, CpCBM92B (Chitinophaga pinensis, UniProt A0A979GQH9); assay: X-ray crystallography of soaked crystal; assay type: binding; details: sites in alpha, beta and gamma subdomains, saturating ligand soak
T2 construct: gene Cpin_2580; single CBM92 domain (incl. Arg955, Asp959 of beta subdomain), locus and borders only in supplement; His6-tagged, E. coli BL21 (DE3)
T2 sequence (A0A979GQH9 entry or part of it): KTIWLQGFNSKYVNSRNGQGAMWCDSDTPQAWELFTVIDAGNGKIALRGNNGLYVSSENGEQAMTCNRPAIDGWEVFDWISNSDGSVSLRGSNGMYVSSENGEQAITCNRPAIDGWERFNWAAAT

| Structure (SMILES) | Kd (CpCBM92A) [µM] | X-ray crystallography of soaked crystal (CpCBM92B) | X-ray crystallography of soaked crystal (CpCBM92B; non-reducing end sugar in cleft) |
| --- | --- | --- | --- |
| OC[C@H]1O[C@@H](O[C@H]2C(O)O[C@H](CO)[C@@H](O)[C@@H]2O)[C@H](O)[C@@H](O)[C@@H]1O (stereo partly drawn) [S2, sophorose] | 882 ± 107 | Adding either G2 or S2 to the protein crystals led to binding | – |
| OC[C@H]1OC(O)[C@H](O)[C@@H](O)[C@@H]1O (stereo partly drawn) [glucose] | 1840 ± 200 | Soaking experiments of the CpCBM92B protein crystals with glucose, gentiobiose | – |
| OC[C@H]1O[C@@H](OC[C@H]2OC(O)[C@H](O)[C@@H](O)[C@@H]2O)[C@H](O)[C@@H](O)[C@@H]1O (stereo partly drawn) [G2, gentiobiose] | 202 ± 40 | – | Adding either G2 or S2 to the protein crystals led to binding |
